From US20230406883A1, “COMPOUNDS AND THEIR USE IN TREATMENT OF TACHYKININ RECEPTOR MEDIATED DISORDERS” (Embark Biotech ApS, priority 2020, published 2023)
Numbered stars: 1 amine (or outer) side, 2 acyl side, 3 side chain; on linkers, the order of the positions; unused ones are H or OH. Square brackets hold non-standard residues; d marks the D form. Side chains are listed from the residue outwards. Peptide text beside a SMILES is read from it. * marks the point of attachment. X1 = O=C(O)CCCCCCCCCCCCCCCCC(=O)N[C@@H](CCC(=O)NCCCNCCCCNCCCN*)C(=O)O; C18 diacid = O=C(O)CCCCCCCCCCCCCCCCC(=O)*; γGlu = O=C(O)[C@H](CCC(=O)[*:2])N[*:1]; εLys = N[C@@H](CCCCN[*:1])C(=O)[*:2]; NMeL = CN[C@@H](CC(C)C)C(=O)O; Suc = O=C(CCC(=O)[*:2])[*:1]; Nle = CCCC[C@H](N)C(=O)O

Experiments:
[1] = in vivo; set-up: species or system mice; details: mouse
Experimental: Pharmacokinetics: To evaluate the in vivo half-life of individual peptide analogues we used wild type lean mice at around 10 weeks of age injected once with a peptide analogue. For each sample time point 3-4 mice were used and blood was drawn from the submandibular vein at indicated time points following injection. Prior to injection mice were given ad libitum access to standard chow diet. Mice were subcutaneously injected with 0.5 mg/kg peptide analogue in a volume of 2 ml/kg. The amount of peptide analogue and metabolite(s) present in blood samples were measured by TF-LC-MS and MetID-LC-MS, respectively. Sample preparation: One volume of plasma is precipitated with three volumes of ethanol (with internal standard). The mixture is centrifuged at 13000 g for 20 min. One volume of supernatant is diluted with two volumes of Milli-Q water (1% formic acid). Calibration curve: peptide analogue was spiked into blank mouse plasma. Range: 0.5 to 2000 nM (linear 1/x2).

[2] = Energy expenditure screening by indirect calorimetry in diet-induced obese mice; assay type: in vivo; details: DIO mice, 0.5 mg/kg s.c., increase over vehicle
Experimental: Indirect calorimetry was used to evaluate the ability of individual peptide analogues to dose-dependently increase energy expenditure (EE) we used metabolic cages and indirect calorimetry measured by the Promethion system. To this end, oxygen consumption was used as a surrogate measure for EE. Substrate preference (fat or carbohydrate) was evaluated using the respiratory exchange ratio (RER). In parallel, behavioral information such as walking distance and water and food intake were recorded.
Prior to experimentation, DIO mice were transferred to habituation cages for at least 10 days (5 days outside and at least 5 days in the Sable Systems gas analyzer module) to acclimatize. For all in vivo compound tests for EE evaluation, mice received subcutaneous injections between 2 and 4 pm.
Energy expenditure screening: After habituation, mice were subcutaneously injected with 0.5 mg/kg peptide analogue in a volume of 2 ml/kg. Mice were injected q.a.d. (quaque altera die) and received a total of two injections. EE was evaluated and increase over vehicle was calculated as percent of mean oxygen consumption over a 30-hour period after injection. Prior to injection peptide analogues were dissolved to 0.25 mg/ml in in vivo buffer.

| Plasma exposure [26 h] [1] | level at time molar at 2 h ([1]; sc, 0.5 mg/kg) [nM] | Plasma exposure [2 h] [1] [nM] | SMILES | Energy expenditure (percent of vehicle; based on 30 h average vO2) [2] |
| --- | --- | --- | --- | --- |
| BLLQ | 237 |  | CCCC[C@H](NC(=O)[C@H](CC(C)C)N(C)C(=O)CNC(=O)[C@@H](NC(=O)[C@H](Cc1ccc(O)cc1)NC(=O)[C@H](CCCCN)NC(=O)[C@H](CC(=O)O)NC(=O)CCC(=O)NCCCNCCCCNCCCNC(=O)CC[C@H](NC(=O)CCCCCCCCCCCCCCCCC(=O)O)C(=O)O)C(C)C)C(N)=O [compound 318, *Asp;Lys;Tyr;Val;Gly;NmLeu;Nle;NH2] ({X1-Suc}-DKYVG[NMeL][Nle]-NH2) | 0% of vehicle |
| 763 nM |  | 2266 | CCCC[C@H](NC(=O)[C@H](CC(C)C)N(C)C(=O)CNC(=O)[C@@H](NC(=O)[C@H](Cc1ccc(O)cc1)NC(=O)[C@H](CCCCN)NC(=O)[C@H](CC(=O)O)NC(=O)[C@@H](N)CCCCNC(=O)[C@@H](N)CCCCNC(=O)CC[C@H](NC(=O)CCCCCCCCCCCCCCCCC(=O)O)C(=O)O)C(C)C)C(N)=O [compound 321, *Asp;Lys;Tyr;Val;Gly;NmLeu;Nle;NH2] (H-K([εLys-γGlu-C18 diacid])DKYVG[NMeL][Nle]-NH2) | 5% of vehicle |
